Results published in patent US8940770B2, “Nitropyridinyl ethyleneimine compound, the pharmaceutical composition containing it, the preparation method and use thereof” (Beijing Yiling Bioengineering Co., Ltd, priority 2008, dated 2015).
Like-named read-outs stand apart in the source and are kept apart here.

Tests used:
[1] = test system: A549 transfected with human cytochrome P450 reducease (CYPOR); assay: cells; type: cell-based; details: for IC50: Homo sapiens
Method: (§1) Tumor cell strain: human non-small cell lung cancer cell line A549.
(§2) Reagent system: SRB, transfection kit
(§3) The cell strains/the cypor transfected cell strains were subject to normoxic and hypoxic cultivations respectively. Then, the cell vitality was analyzed by SRB assay and IC50 values were calculated. At last, the ratio of IC50 values in normoxia and in hypoxia (hypoxic cytotoxicity ratio, HCR) was calculated.
(§4) Both the human non-small cell lung cancer cell line A549 and the cypor transfected cell strains were cultivated in F12 cultivation medium containing 10% fetal bovine serum at 37° C. and in 5% CO2
(§5) The concentration gradient for the drug was set as 10^−3, 10^−4, 10^−5, 10^−6, and 10^−7 mol/L.
(§6) The crystallized powder of the active ingredient was dissolved in DMSO and formulated into a stock solution having a concentration which was 100 times of the maximal administrated concentration of the drug. The administrated concentrations of the drug could be prepared by directly diluting the stock solution with the corresponding serum-free cultivation medium.
(§7) the stock solution was stored at −80° C. in a refrigerator and the solutions of the drug to be administrated were prepared immediately before use.
(§8) The cell in the exponential growth phase was adjusted to a cell density of 1.0×10^5/ml and seeded into a 96-well plate at 100 μl per well. The drug was added under the normoxic and hypoxic condition respectively, according to the experimental grouping, and each of treatments using the drug lasted for 4 h.
(§9) After treatment using the drug was completed, the treated cells were normally cultivated under a normoxic condition for 4 days and then the cell survival rate was assayed by SRB. IC50 was calculated according to the equation of Lg IC50=Σ(Xi+Xi+1)(Pi+1−Pi)/2. Hypoxia cytotoxicity ratio (HCR) was obtained through dividing IC50 value in normoxia by IC50 value in hypoxia. The greater the HCR value is, the stronger the hypoxic selectivity of the drug will be.
(§10) All of the data were statistically analyzed using the software SPSS 11.5, the results were expressed as a mean±standard deviation ( X±SD), the inter-group difference was tested with the program One-Way ANOVA, P<0.05 means a statistically significant difference.

[2] = test system: human non-small cell lung cancer cell line A549; assay: SRB cell viability assay, wild-type A549, normoxic and hypoxic drug treatment; type: cell-based; details: for IC50: Homo sapiens, 4 h drug treatment, then 4 days normoxic culture, SRB, mean ± SD; for HCR O2/N2 (WT): wild-type A549, HCR = IC50 in normoxia/IC50 in hypoxia
Method: as §1, §2, §3, §4, §5, §6, §7, §8, §9, §10

[3] = A549, read-out: IC50 N2 (CYPOR)
[4] = A549, read-out: IC50 O2 (CYPOR)
[5] = wild-type A549, hypoxia (N2), read-out: IC50 N2 (WT)
[6] = wild-type A549, normoxia (O2), read-out: IC50 O2 (WT)

| Compound | melting point | HCR O2/N2 (CYPOR) [1] | IC50 [1, 3] [µM] | IC50 [1, 4] [µM] | IC50 [2, 5] [µM] | IC50 [2, 6] [µM] | HCR O2/N2 (WT) [2] |
| --- | --- | --- | --- | --- | --- | --- | --- |
| NC(=O)c1cc(N2CC2)ncc1[N+](=O)[O-] [Compound VI, 2-(1-ethyleneimine)-4-carbamoyl-5-nitropyridine] | 170 °C (dec.) | 108.7 ± 8.88 | 1.1 ± 0.16 | 120 ± 6.48 | 5.5 ± 1.6 | 137 ± 7.34 | 25.0 ± 5.71 |
| NC(=O)c1ccnc(N2CC2)c1[N+](=O)[O-] [Compound II, 2-(1-ethyleneimine)-4-carbamoyl-3-nitropyridine] | 170 °C (dec.) | 52.5 ± 3.51 | 2.7 ± 0.58 | 142 ± 10.1 | 15.5 ± 2.67 | 198 ± 5.04 | 12.8 ± 2.87 |
| NC(=O)c1ccc([N+](=O)[O-])c(N2CC2)n1 [Compound V, 2-(1-ethyleneimine)-6-carbamoyl-3-nitropyridine] | 170 °C (dec.) | 35.9 ± 9.15 | 1.7 ± 0.38 | 61 ± 7.11 | 9.4 ± 2.65 | 79.3 ± 4.77 | 8.4 ± 3.56 |
| NC(=O)c1cnc(N2CC2)c([N+](=O)[O-])c1 [Compound III, 2-(1-ethyleneimine)-5-carbamoyl-3-nitropyridine] | 150 °C (dec.) | 62.0 ± 8.32 | 2.3 ± 0.27 | 143 ± 9.96 | 13.5 ± 3.2 | 257 ± 4.83 | 19.0 ± 3.91 |
| NC(=O)c1cc([N+](=O)[O-])cnc1N1CC1 [Compound IV, 2-(1-ethyleneimine)-3-carbamoyl-5-nitropyridine] | 160 °C (dec.) | 21.3 ± 4.56 | 9.3 ± 3.2 | 198 ± 24.9 | 56.6 ± 7.17 | 317.2 ± 2.79 | 5.6 ± 2.73 |
